This note sets out measurements from PubChem BioAssay (NCI).

SMILES strings stand for the structures. Where “and” joins values, the source holds several entries; their conditions need not be identical. Identical values can stand only once.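 These data come from cells grown in 96-well plates and exposed to compound for 48 hours at five concentrations. GI50 is the concentration that inhibits growth by half. TGI denotes the concentration required for complete inhibition of growth.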

Experiment in all cases: inhibition of tumour cell growth, NCI panel, 48 h
The test system of assay [1] is 786-0 renal.
In assay [2] the test system is EKVX NSCLC.
Assay [3] has as its system HCT-116 colon.
The test system of assay [4] is HS 578T breast.
Assay [5] relates to HT29 colon.
In assay [6] the test system is KM12 colon.
Assay [7] deals with LOX IMVI melanoma.
The test system of assay [8] is OVCAR-3 ovarian.
Assay [9] has as its system SK-MEL-5 melanoma.
The subject of assay [10] is UO-31 renal.

In the case of `Nc1nn(C(=O)Nc2c(F)cccc2F)c2ccccc12`, the GI50 in assay [1] was above 100 µM; in [2] it was 83.9 µM; in assay [3], 34.8 µM; in assay [4] it was 73 µM; in assay [5], 74.6 µM; in assay [6] it was 86.2 µM. In addition, the GI50 is 49.3 µM in [7], 65.7 µM in assay [8], 39.7 µM in assay [9] and 18.6 µM in assay [10]. Further, the TGI in assay [1], in assay [2], in assay [3], in [4], in [5] and in assay [6] was above 100 µM in each case. Further, the TGI in [7], in [8], in assay [9] and in assay [10] was above 100 µM each time.

Turning to `CC(C)Cc1ccc(C(C)C(=O)NCc2ccc(Cn3c(=O)sn(CCCI)c3=O)cc2)cc1` (stereo not given), the GI50 in assay [1] is 0.475 µM; in assay [2] it was 1.46 µM; in [3], 0.134 µM; in assay [4], 0.653 µM; in [5], 0.238 µM; in [6], 1.56 µM. In addition, the GI50 is 0.181 µM in assay [7], 0.269 µM in [8], 1.46 µM in [9] and 0.407 µM in [10]. Also, the TGI worked out at 0.998 µM in [1]; 2.92 µM in assay [2]; 0.393 µM in assay [3]; 1.83 µM in [4]; 0.75 µM in assay [5]; 3.25 µM in assay [6]. Moreover, the TGI was 0.393 µM in [7], 0.791 µM in [8], 2.78 µM in assay [9] and 1.49 µM in [10].

`CC1Cc2ccccc2N1C(=O)Cc1nc(N2CCOCC2)cc(=O)[nH]1` (stereo not given): the GI50 in assay [1] is 0.639 µM and 3.19 µM; in assay [2], 7.06 µM and 17.1 µM; in assay [3] it was 6.47 µM and 24.8 µM; in assay [4], 1.75 µM and 4.13 µM; in [5] it was 8.25 µM and 34.5 µM; in assay [6], 20.2 µM and 47.6 µM. Besides, the GI50 in assay [7] was 11.6 µM and 16.7 µM; in assay [8], 6.37 µM and 12.8 µM; in assay [9], 13.4 µM and 34.5 µM; in assay [10], 2.26 µM and 3.28 µM. The TGI in [1] is > 100 µM and 98.4 µM; in [2], above 100 µM; in assay [3], above 100 µM; in assay [4], 33.7 µM and 49.8 µM; in assay [5] it was above 100 µM; in assay [6] it was 55.1 µM and > 100 µM. The TGI in assay [7] was 73.7 µM and > 100 µM; in assay [8], above 100 µM; in [9], 34.1 µM and > 100 µM; in assay [10], above 100 µM.
